Assay results reported in patent US20070128217A1 (priority 2003, published 2007).

Tests used:
[1] = tested on: control sera (pooled serum of ten healthy LUMC hospital workers; commercial negative donor pooled serum from the Dutch bloodbank); format: binding, human; design: Binding of Control serum LUMC to linear peptides / Binding of Control serum Blood-bank to linear peptides / Binding of Control serum LUMC to looped peptides / Binding of Control Serum Blood-Bank to Looped peptides / Binding of Control serum LUMC to linear peptides of the protein M of SARS-CoV Urbani / Binding of Control serum Blood-bank to linear peptides of the protein M of SARS-CoV Urbani / Binding of Control serum LUMC to looped peptides of the protein M of SARS-CoV Urbani / Binding of Control Serum Blood-Bank to Looped peptides of the protein M of SARS-CoV Urbani: unit not given here
[2] = tested on: rabbit serum obtained by immunizing a rabbit with the SARS-CoV strain Frankfurt 1; format: binding; design: Binding of a rabbit serum to linear peptides / Binding of a rabbit serum to looped peptides / Rabbit serum linear peptides / Rabbit serum looped peptides / Binding of a rabbit serum to linear peptides of protein N of SARS-CoV Urbani (Rabbit serum linear peptides) / Binding of a rabbit serum to looped/cyclic peptides of protein N of SARS-CoV Urbani (Rabbit serum looped peptides): unit not given here
[3] = tested on: recombinant human anti-SARS-CoV antibody 03-018; format: binding; design: Binding of antibody 03-018 to linear peptides of the N protein of SARS-CoV Urbani / Binding of antibody 03-018 to looped/cyclic peptides of the N protein of SARS-CoV Urbani: unit not given here
[4] = tested on: antibodies in sera from SARS patients (sera 1a, 1b, 2, 6, 37, 62, London, SARS-yellow, SARS-green); format: binding, human; design: Binding of serum 6 to linear peptides of protein X1 of SARS-CoV Urbani / Binding of serum 37 to linear peptides of protein X1 of SARS-CoV Urbani / Binding of serum 6 to looped/cyclic peptide (PEPSCAN-ELISA) / Binding of serum 37 to looped/cyclic peptide (PEPSCAN-ELISA) / Binding of serum 37 to looped/cyclic peptides of protein X1 of SARS-CoV Urbani / Binding of serum 6 to linear peptides of protein X2 / Binding of serum 37 to linear peptides of protein X2 / Binding of serum 37 to looped/cyclic peptides of protein X2 of SARS-CoV Urbani / Binding of serum 6 to linear peptides of protein M of SARS-CoV Urbani / Binding of serum 37 to linear peptides of protein M of SARS-CoV Urbani / Binding of serum 6 to looped/cyclic peptides of protein M of SARS-CoV Urbani / Binding of serum 37 to looped/cyclic peptides of protein M of SARS-CoV Urbani / Binding of serum 6 to linear peptides of protein X3 of SARS-CoV Urbani / Binding of serum 37 to linear peptides of protein X3 of SARS-CoV Urbani / Binding of serum 37 to looped/cyclic peptides of protein X3 of SARS-CoV Urbani / Binding of serum 6 to linear peptides of protein X4 of SARS-CoV Urbani / Binding of serum 37 to linear peptides of protein X4 of SARS-CoV Urbani / Binding of serum 37 to looped/cyclic peptides of protein X4 of SARS-CoV Urbani / Binding of serum 6 to linear peptides of protein X5 of SARS-CoV Urbani / Binding of serum 37 to linear peptides of protein X5 of SARS-CoV Urbani / Binding of serum 37 to looped/cyclic peptides of protein X5 of SARS-CoV Urbani / Binding of serum 6 to linear peptides of protein N of SARS-CoV Urbani / Binding of serum 37 to linear peptides of protein N of SARS-CoV Urbani / Binding of serum 6 to linear peptide (PEPSCAN-ELISA) / Binding of serum 1a to looped/cyclic peptides of protein N of SARS-CoV Urbani / Binding of serum 1b to looped/cyclic peptides of protein N of SARS-CoV Urbani / Binding of serum 2 to looped/cyclic peptides of protein N of SARS-CoV Urbani / Binding of serum 6 to looped/cyclic peptides of protein N of SARS-CoV Urbani / Binding of serum 37 to looped/cyclic peptides of protein N of SARS-CoV Urbani / Binding of serum 62 to looped/cyclic peptides of protein N of SARS-CoV Urbani / Binding of serum London to looped/cyclic peptides of protein N of SARS-CoV Urbani / Binding of serum SARS-green to looped/cyclic peptides of protein N of SARS-CoV Urbani: unit not given here

Sequence	Binding of Control Serum Blood-Bank to Looped peptides [1]	Binding of Control serum Blood-bank to linear peptides [1]	Binding of Control serum LUMC to linear peptides [1]	Binding of Control serum LUMC to looped peptides [1]	Binding of a rabbit serum to linear peptides of protein N of SARS-CoV Urbani (Rabbit serum linear peptides) [2]	Binding of a rabbit serum to looped/cyclic peptides of protein N of SARS-CoV Urbani (Rabbit serum looped peptides) [2]	Binding of antibody 03-018 to linear peptides of the N protein of SARS-CoV Urbani [3]	Binding of antibody 03-018 to looped/cyclic peptides of the N protein of SARS-CoV Urbani [3]	Binding of serum 1a to linear peptides of protein N of SARS-CoV Urbani [4]	Binding of serum 1a to looped/cyclic peptides of protein N of SARS-CoV Urbani [4]	Binding of serum 1b to linear peptides of protein N of SARS-CoV Urbani [4]	Binding of serum 1b to looped/cyclic peptides of protein N of SARS-CoV Urbani [4]	Binding of serum 2 to linear peptides of protein N of SARS-CoV Urbani [4]	Binding of serum 2 to looped/cyclic peptides of protein N of SARS-CoV Urbani [4]	Binding of serum 6 to looped/cyclic peptides of protein N of SARS-CoV Urbani [4]	Binding of serum 37 to looped/cyclic peptides of protein N of SARS-CoV Urbani [4]	Binding of serum 62 to looped/cyclic peptides of protein N of SARS-CoV Urbani [4]	Binding of serum London to looped/cyclic peptides of protein N of SARS-CoV Urbani [4]	Binding of serum SARS-green to looped/cyclic peptides of protein N of SARS-CoV Urbani [4]	Binding of serum SARS-yellow to looped/cyclic peptides of protein N of SARS-CoV Urbani [4]	other results
ALNTPKDHIGTRNPN	0.5	0.8	0.6	0.4	0.2	0.2	0.1	0.2	0.3	0.4	0.1	0.3	0.3	0.5	0.3	0.5	0.5	0.3	0.5	0.0	Binding of serum 6 to linear peptides of protein N of SARS-CoV Urbani [4]: 0.2; Binding of serum 37 to linear peptides of protein N of SARS-CoV Urbani [4]: 0.7; Binding of serum 62 to linear peptides of protein N of SARS-CoV Urbani [4]: 0.6; Binding of serum London to linear peptides of protein N of SARS-CoV Urbani [4]: 0.5; Binding of serum SARS-green to linear peptides of protein N of SARS-CoV Urbani [4]: 0.4; Binding of serum SARS-yellow to linear peptides of protein N of SARS-CoV Urbani [4]: 0.5
SPRWYFYYLGTGPEA	0.8	0.7	0.6	0.8	0.2	0.6	0.1	0.2	0.3	0.6	0.2	0.3	0.2	0.5	0.4	0.9	1.1	0.7	0.6	0.7	Binding of serum 6 to linear peptides of protein N of SARS-CoV Urbani [4]: 0.2; Binding of serum 37 to linear peptides of protein N of SARS-CoV Urbani [4]: 0.9; Binding of serum 62 to linear peptides of protein N of SARS-CoV Urbani [4]: 0.9; Binding of serum London to linear peptides of protein N of SARS-CoV Urbani [4]: 0.5; Binding of serum SARS-green to linear peptides of protein N of SARS-CoV Urbani [4]: 0.6; Binding of serum SARS-yellow to linear peptides of protein N of SARS-CoV Urbani [4]: 0.6
YAEGSRGGSQASSRS	0.4	0.9	0.7	0.6	0.2	0.0	0.1	0.2	–	0.3	–	0.2	–	0.3	0.2	0.4	0.2	0.3	0.3	0.1	Binding of serum 1a to linear peptide (PEPSCAN-ELISA) [4]: 0.3; Binding of serum 1b to linear peptide (PEPSCAN-ELISA) [4]: 0.1; Binding of serum 2 to linear peptide (PEPSCAN-ELISA) [4]: 0.3; Binding of serum 6 to linear peptide (PEPSCAN-ELISA) [4]: 0.4; Binding of serum 37 to linear peptide (PEPSCAN-ELISA) [4]: 0.7; Binding of serum 62 to linear peptide (PEPSCAN-ELISA) [4]: 0.7; Binding of serum London to linear peptide (PEPSCAN-ELISA) [4]: 0.5; Binding of serum SARS-green to linear peptide (PEPSCAN-ELISA) [4]: 0.6; Binding of serum SARS-yellow to linear peptide (PEPSCAN-ELISA) [4]: 0.6
QAFGRRGPEQTQGNF	0.4	0.9	0.7	0.4	0.1	0.3	0.1	0.2	–	0.3	–	0.2	–	0.3	0.2	0.3	0.3	0.3	0.2	0.2	Binding of serum 1a to linear peptide (PEPSCAN-ELISA) [4]: 0.3; Binding of serum 1b to linear peptide (PEPSCAN-ELISA) [4]: 0.1; Binding of serum 2 to linear peptide (PEPSCAN-ELISA) [4]: 0.2; Binding of serum 6 to linear peptide (PEPSCAN-ELISA) [4]: 0.2; Binding of serum 37 to linear peptide (PEPSCAN-ELISA) [4]: 0.6; Binding of serum 62 to linear peptide (PEPSCAN-ELISA) [4]: 0.8; Binding of serum London to linear peptide (PEPSCAN-ELISA) [4]: 0.7; Binding of serum SARS-green to linear peptide (PEPSCAN-ELISA) [4]: 0.2; Binding of serum SARS-yellow to linear peptide (PEPSCAN-ELISA) [4]: 0.4
